The values that follow come from ChEMBL document CHEMBL1134096, “Discovery and characterization of the potent, selective and orally bioavailable MMP inhibitor ABT-770” (Bioorg Med Chem Lett, 2001).

Broadly, the half-life is the time needed for the level to fall by half in the phase considered. Usually IC50 stands for the concentration that inhibits the measured activity by half. Broadly, the AUC is the area under the concentration-time curve, a measure of exposure. A word on the bioavailability: it is the share of a dose that reaches the circulation, judged against a reference dose that is usually intravenous. Broadly, the ILS is the gain in survival time of treated over control animals, in per cent.

A short description of data set [1]: Half-life was determined in monkey after 3 mg/kg of i.v. dose. Type of data set: ADME, organism-based. Set-up: dose 3 mg/kg, route intravenous. The note with it: cercopithecidae, in vivo, iv.
Data set [2] concerns the target 72 kDa type IV collagenase (Homo sapiens, UniProt P08253). In words: In vitro inhibition of human Matrix metalloprotease-2.
For data set [3], the target named is T1, Interstitial collagenase (Homo sapiens, UniProt P03956).
T1 sequence (P03956 whole entry): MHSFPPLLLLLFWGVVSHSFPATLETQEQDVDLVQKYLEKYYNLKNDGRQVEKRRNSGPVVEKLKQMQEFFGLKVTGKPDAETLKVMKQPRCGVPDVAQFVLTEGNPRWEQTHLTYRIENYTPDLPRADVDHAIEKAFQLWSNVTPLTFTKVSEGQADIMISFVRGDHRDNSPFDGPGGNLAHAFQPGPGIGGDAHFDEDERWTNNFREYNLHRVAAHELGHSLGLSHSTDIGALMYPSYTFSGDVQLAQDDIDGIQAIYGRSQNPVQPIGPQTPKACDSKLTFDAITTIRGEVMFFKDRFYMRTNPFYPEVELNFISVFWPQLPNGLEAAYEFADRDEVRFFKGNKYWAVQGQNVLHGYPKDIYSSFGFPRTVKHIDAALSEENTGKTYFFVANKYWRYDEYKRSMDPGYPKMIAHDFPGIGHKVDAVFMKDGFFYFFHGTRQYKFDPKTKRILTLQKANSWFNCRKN
In words: In vitro inhibition of human Matrix metalloprotease-1.

A short description of data set [4]: Area under curve was determined in dog after a 3 mg/kg of oral dose. In kind it is ADME, organism-based, Canis lupus familiaris. The note with it: in vivo. Further details: dose 3 mg/kg, route oral.
Data set [5] can be described thus: Volume of distribution was determined in dog after a 3 mg/kg of iv dose. In kind it is ADME, organism-based, Canis lupus familiaris. Further details: dose 3 mg/kg, route intravenous. The note with it: in vivo, read-out: V.
A short description of data set [6]: Absolute bioavailability was evaluated in dog. In kind it is ADME, organism-based, Canis lupus familiaris. The note with it: in vivo.
Data set [7] in a line: Half-life was determined in dog after a3 mg/kg of iv dose. In kind it is ADME, organism-based, Canis lupus familiaris. The note with it: in vivo, 3 mg/kg.
The test system of data set [8] is Rattus norvegicus. In words: Plasma clearance value was determined in rat after a 3 mg/kg of iv dose. In kind it is ADME, organism-based. Set-up: dose 3 mg/kg, route intravenous. The note with it: in vivo.
The target in data set [9] is T2, Matrilysin (Homo sapiens, UniProt P09237).
T2 sequence (P09237 whole entry): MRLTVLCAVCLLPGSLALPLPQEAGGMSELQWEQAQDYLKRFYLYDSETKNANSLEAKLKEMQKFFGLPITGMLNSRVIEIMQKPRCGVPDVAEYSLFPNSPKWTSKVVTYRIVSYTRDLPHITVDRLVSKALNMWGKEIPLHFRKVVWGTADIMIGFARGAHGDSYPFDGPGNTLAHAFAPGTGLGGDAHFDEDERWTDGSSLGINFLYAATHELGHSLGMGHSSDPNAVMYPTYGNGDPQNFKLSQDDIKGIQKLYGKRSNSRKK
The data set can be described thus: Inhibition of Matrix metalloprotease-7.

A short description of data set [10]: Volume of distribution was determined in monkey after a 3 mg/kg of iv dose. Type of data set: ADME, organism-based. Further details: dose 3 mg/kg, route intravenous. The note with it: cercopithecidae, in vivo, read-out: V.
Data set [11] is described as follows: Plasma clearance value was determined in monkey after a 3 mg/kg of iv dose. In kind it is ADME, organism-based. Further details: dose 3 mg/kg, route intravenous. The note with it: cercopithecidae, in vivo.
Data set [12] in a line: Volume of distribution was determined in rat after a 3 mg/kg of iv dose. In kind it is ADME, organism-based. Set-up: dose 3 mg/kg, route intravenous. The note with it: in vivo, read-out: V.
Data set [13] is described as follows: Area under curve was determined in rat after a 3 mg/kg of oral dose. Further details: dose 3 mg/kg, route oral. In kind it is ADME, organism-based. The note with it: in vivo.
Data set [14] deals with Canis familiaris. In words: Plasma clearance value was determined in dog after a 3 mg/kg of iv dose. Type of data set: ADME, organism-based, Canis lupus familiaris. The note with it: in vivo. Set-up: dose 3 mg/kg, route intravenous.
Data set [15] concerns Mus musculus. In words: Increase in life span corresponding to 6.5 day delay to 1 g tumor weight at 100 mg/kg of oral dose in mice. In kind it is functional. The note with it: 156 h.
The nature of data set [16]: Area under curve was determined in monkey after a 3 mg/kg of oral dose. In kind it is ADME, organism-based. Set-up: dose 3 mg/kg, route oral. The note with it: cercopithecidae, in vivo.
Data set [17] addresses Stromelysin-1 (Homo sapiens, UniProt P08254). In words: Inhibition of Matrix metalloprotease-3.
The nature of data set [18]: Absolute bioavailability was evaluated in rat. In kind it is ADME, organism-based. The note with it: in vivo.
The target of data set [19] is Matrix metalloproteinase-9 (Homo sapiens, UniProt P14780). The data set can be described thus: Inhibition of matrix metalloprotease-9.
Chain of Matrix metalloproteinase-9 (P14780 whole entry): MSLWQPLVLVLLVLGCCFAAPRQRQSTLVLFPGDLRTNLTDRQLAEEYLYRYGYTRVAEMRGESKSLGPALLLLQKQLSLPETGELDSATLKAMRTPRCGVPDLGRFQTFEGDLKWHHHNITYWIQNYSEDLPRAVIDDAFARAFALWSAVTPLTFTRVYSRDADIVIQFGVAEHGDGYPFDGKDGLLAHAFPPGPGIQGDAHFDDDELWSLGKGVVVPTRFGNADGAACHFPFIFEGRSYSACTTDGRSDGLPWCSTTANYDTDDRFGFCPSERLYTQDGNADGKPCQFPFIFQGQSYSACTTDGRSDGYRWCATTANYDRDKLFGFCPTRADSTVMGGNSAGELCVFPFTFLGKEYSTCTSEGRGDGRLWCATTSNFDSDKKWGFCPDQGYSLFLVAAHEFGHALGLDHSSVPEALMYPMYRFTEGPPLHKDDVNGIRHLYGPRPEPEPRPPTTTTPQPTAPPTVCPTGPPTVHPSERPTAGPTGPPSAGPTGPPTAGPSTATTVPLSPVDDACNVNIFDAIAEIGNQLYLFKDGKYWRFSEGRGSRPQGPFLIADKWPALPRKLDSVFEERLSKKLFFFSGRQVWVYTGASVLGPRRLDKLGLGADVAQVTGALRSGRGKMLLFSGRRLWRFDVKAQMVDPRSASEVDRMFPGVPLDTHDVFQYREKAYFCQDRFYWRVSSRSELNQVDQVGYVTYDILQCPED
Data set [20] in a line: Absolute bioavailability was evaluated in monkey. Type of data set: ADME, organism-based. The note with it: cercopithecidae, in vivo.
Data set [21] has as its system B16. The data set can be described thus: Maximal effective dose against growth of B16 melanoma cells implanted subcutaneously in flank of mice. In kind it is functional, Mus musculus.

Values joined by “and” are separate entries in the source; they are usually repeats but may differ in a detail not shown here. Equal values may be shown once. Where only a bound is given, the exact number is not on record here.

Chain of 72 kDa type IV collagenase (P08253 whole entry): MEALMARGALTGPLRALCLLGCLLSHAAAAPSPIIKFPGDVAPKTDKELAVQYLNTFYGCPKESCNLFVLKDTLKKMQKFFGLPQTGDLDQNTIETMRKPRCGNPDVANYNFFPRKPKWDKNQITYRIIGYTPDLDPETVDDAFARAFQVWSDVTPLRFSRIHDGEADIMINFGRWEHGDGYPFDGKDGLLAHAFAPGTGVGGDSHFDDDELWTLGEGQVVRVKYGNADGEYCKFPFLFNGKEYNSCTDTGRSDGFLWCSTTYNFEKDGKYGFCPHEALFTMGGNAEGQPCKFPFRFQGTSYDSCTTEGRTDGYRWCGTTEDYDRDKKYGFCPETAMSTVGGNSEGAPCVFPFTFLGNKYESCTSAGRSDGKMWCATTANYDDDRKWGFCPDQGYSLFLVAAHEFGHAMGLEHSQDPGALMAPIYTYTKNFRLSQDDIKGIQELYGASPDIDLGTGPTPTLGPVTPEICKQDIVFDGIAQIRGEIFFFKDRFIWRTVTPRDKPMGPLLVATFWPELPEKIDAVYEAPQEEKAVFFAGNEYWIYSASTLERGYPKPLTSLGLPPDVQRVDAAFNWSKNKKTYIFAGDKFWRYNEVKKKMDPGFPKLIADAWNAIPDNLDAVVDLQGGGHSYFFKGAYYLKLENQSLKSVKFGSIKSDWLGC
Chain of Stromelysin-1 (P08254 whole entry): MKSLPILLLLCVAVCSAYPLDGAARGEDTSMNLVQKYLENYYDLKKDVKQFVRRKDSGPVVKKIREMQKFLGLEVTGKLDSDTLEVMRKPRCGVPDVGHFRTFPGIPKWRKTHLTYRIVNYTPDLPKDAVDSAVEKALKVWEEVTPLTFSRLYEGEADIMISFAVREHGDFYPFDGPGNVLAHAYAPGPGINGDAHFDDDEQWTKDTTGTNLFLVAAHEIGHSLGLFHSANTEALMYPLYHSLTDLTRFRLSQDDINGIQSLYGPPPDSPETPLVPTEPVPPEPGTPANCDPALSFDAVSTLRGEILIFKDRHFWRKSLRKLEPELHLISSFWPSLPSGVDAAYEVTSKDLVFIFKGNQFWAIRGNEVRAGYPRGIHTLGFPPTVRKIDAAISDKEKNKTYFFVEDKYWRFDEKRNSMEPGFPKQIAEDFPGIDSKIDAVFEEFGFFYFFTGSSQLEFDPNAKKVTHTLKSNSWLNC

For `CC1(C)NC(=O)N(CC(COc2ccc(-c3ccc(S(C)(=O)=O)cc3)cc2)N(O)C=O)C1=O` (stereo not drawn), the half-life in [1] is 5 h. Further, the half-maximal inhibitory concentration (IC50) in data set [2] turned out to be 48 nM; in data set [3], 4900 nM.
On to `CN1C(=O)N(CC(COc2ccc(-c3ccc(C#N)cc3)cc2)N(O)C=O)C(=O)C1(C)C` (stereo not drawn), for which the IC50 in data set [2] was 58 nM.
As to `CN1C(=O)N(CC(COc2ccc(-c3ccccc3)cc2)N(O)C=O)C(=O)C1(C)C` (stereo not drawn), the 50% inhibitory concentration (IC50) in data set [2] came to 89 nM; in [3], 1100 nM.
With `C=Cc1ccc(-c2ccc(OCC(CN3C(=O)N(C)C(C)(C)C3=O)N(O)C=O)cc2)cc1` (stereo not drawn), the concentration for half-maximal inhibition (IC50) in data set [2] is 61 nM; in data set [3], > 10000 nM.
The compound `CCCOc1ccc(-c2ccc(OCC(CN3C(=O)NC(C)(C)C3=O)N(O)C=O)cc2)cc1` (stereo not drawn) gave a half-life in data set [1] of 1 h. The figures for the IC50 in data set [2] and in [3] were 4 nM and > 10000 nM, respectively.
Turning to `CC1(C)NC(=O)N(CC(COc2ccc(-c3ccc(C(F)(F)F)cc3)cc2)N(O)C=O)C1=O` (stereo not drawn), the results for the IC50 in [2] and in [3] were 20 nM and 840 nM, respectively.
Take `CCCCCOc1ccc(-c2ccc(OCC(CN3C(=O)NC(C)(C)C3=O)N(O)C=O)cc2)cc1` (stereo not drawn): the figures for the IC50 in [2] and in data set [3] were 26 nM and > 10000 nM, respectively.
In the case of `CN1C(=O)N(CC(COc2ccc(-c3cccc(C#N)c3)cc2)N(O)C=O)C(=O)C1(C)C` (stereo not drawn), the half-maximal inhibitory concentration (IC50) in data set [2] is 1300 nM; in data set [3] it was > 10000 nM.
For the compound `CC1(C)NC(=O)N(C[C@@H](COc2ccc(-c3ccc(OC(F)(F)F)cc3)cc2)N(O)C=O)C1=O`, the AUC in [4] was 23000 ng·h/mL; in data set [13], 24000 ng·h/mL; in data set [16] it was 43000 ng·h/mL. Besides, the Vd in [5] came out at 0.9 L/kg; in [10], 1.2 L/kg; in data set [12], 1.2 L/kg. Moreover, the T1/2 in data set [1] was 8 h and 21 h. Further, the bioavailability came out at 83% in data set [6], 93% in data set [18] and 95% in [20]. This compound showed a half-life in data set [7] of 9 h. In addition, the Clp in [8] came out at 2 mL/min/kg; in data set [11] it was 1.13 mL/min/kg; in data set [14], 1.83 mL/min/kg. Besides, the IC50 was > 10000 nM in [9]; 4 nM in data set [2]; 4600 nM in data set [3]; 42 nM in data set [17]; 120 nM in data set [19]. In addition, the ILS at 100 mg/kg in [15] turned out to be 46%. Moreover, the Effective dose in data set [21] stood at 300 mg/kg.
Turning to `CCOc1ccc(-c2ccc(OCC(CN3C(=O)NC(C)(C)C3=O)N(O)C=O)cc2)cc1` (stereo not drawn), the figures for the IC50 in data set [2] and in data set [3] were 1 nM and 1000 nM, respectively.
Take `CN1C(=O)N(CC(COc2ccc(-c3cccs3)cc2)N(O)C=O)C(=O)C1(C)C` (stereo not drawn): the IC50 was 130 nM in [2] and 3600 nM in [3].
As to `CN1C(=O)N(CC(COc2ccc(-c3ccco3)cc2)N(O)C=O)C(=O)C1(C)C` (stereo not drawn), the results for the IC50 in [2] and in [3] were 85 nM and 1600 nM, respectively.
On to `CC1(C)NC(=O)N(CC(COc2ccc(-c3ccc(C#N)cc3)cc2)N(O)C=O)C1=O` (stereo not drawn), for which the half-life in data set [1] is 8 h. Also, the IC50 was determined as 8 nM in data set [2] and 2100 nM in data set [3].
Consider `CN1C(=O)N(CC(COc2ccc(-c3cccnc3)cc2)N(O)C=O)C(=O)C1(C)C` (stereo not drawn), for which the IC50 in data set [2] and in data set [3] was > 10000 nM throughout.
Regarding `Cc1ccc(-c2ccc(OCC(CN3C(=O)N(C)C(C)(C)C3=O)N(O)C=O)cc2)cc1` (stereo not drawn), the IC50 is 20 nM in [2] and 1600 nM in [3].
As for `COc1ccc(-c2ccc(OCC(CN3C(=O)N(C)C(C)(C)C3=O)N(O)C=O)cc2)cc1` (stereo not drawn), in data set [2], the IC50 is 4 nM.
For the compound `COCCOc1ccc(-c2ccc(OCC(CN3C(=O)NC(C)(C)C3=O)N(O)C=O)cc2)cc1` (stereo not drawn), the half-life in [1] is 1 h. For the same compound, the values for the IC50 in [2] and in data set [3] were 4 nM and > 10000 nM, respectively.
On to `CN1C(=O)N(CC(COc2cccc(-c3ccc(C#N)cc3)c2)N(O)C=O)C(=O)C1(C)C` (stereo not drawn), for which the IC50 in data set [2] and in data set [3] was > 10000 nM throughout.
Consider `CC1(C)NC(=O)N(C[C@H](COc2ccc(-c3ccc(OC(F)(F)F)cc3)cc2)N(O)C=O)C1=O`, for which the IC50 was > 10000 nM in data set [9]; 180 nM in [2]; > 10000 nM in [3]; 3100 nM in data set [17]; 1200 nM in [19].
`CCCCc1ccc(-c2ccc(OCC(CN3C(=O)NC(C)(C)C3=O)N(O)C=O)cc2)cc1` (stereo not drawn): the half-life in [1] is 1 h. The IC50 is 16 nM in [2] and > 10000 nM in [3].
`CC1(C)NC(=O)N(CC(COc2ccc(-c3ccc(OC(F)(F)F)cc3)cc2)N(O)C=O)C1=O` (stereo not drawn) gave a half-life in data set [1] of 20 h. Moreover, the IC50 was 6 nM in data set [2] and 8600 nM in [3].
